Measurements as given in patent US9475817B2 (BRISTOL-MYERS SQUIBB COMPANY, priority 2012, dated 2016).
Counter-ions that a name gives are not always drawn.

Tests used:
CK1δ = CK1δ (Homo sapiens (Human), UniProt P48730); experiment: CK1δ kinase assay (Caliper LabChip, fluoresceinated peptide substrate); type: biochemical; settings: 200 pM CK1δ, 50 μM ATP, 1.5 μM peptide substrate, 22 hours room temperature
Experimental: (§1) CK1ε and CK1δ Kinase Assays
(§2) The kinase assay was performed in V-bottom 384-well plates. […] The reaction was incubated at room temperature for 22 hours and terminated by adding 45 μl of 35 mM EDTA to each sample. […] Compounds were dissolved at 10 mM in dimethylsulfoxide (DMSO) and evaluated at eleven concentrations. IC50 values were derived by non-linear regression analysis.

CK1ε = CK1ε (Homo sapiens (Human), UniProt P49674); experiment: CK1ε kinase assay (Caliper LabChip, fluoresceinated peptide substrate); type: biochemical; settings: 200 pM CK1ε, 50 μM ATP, 1.5 μM peptide substrate, 22 hours room temperature
Experimental: as §1, §2

CK1δ, sequence (P48730 whole entry): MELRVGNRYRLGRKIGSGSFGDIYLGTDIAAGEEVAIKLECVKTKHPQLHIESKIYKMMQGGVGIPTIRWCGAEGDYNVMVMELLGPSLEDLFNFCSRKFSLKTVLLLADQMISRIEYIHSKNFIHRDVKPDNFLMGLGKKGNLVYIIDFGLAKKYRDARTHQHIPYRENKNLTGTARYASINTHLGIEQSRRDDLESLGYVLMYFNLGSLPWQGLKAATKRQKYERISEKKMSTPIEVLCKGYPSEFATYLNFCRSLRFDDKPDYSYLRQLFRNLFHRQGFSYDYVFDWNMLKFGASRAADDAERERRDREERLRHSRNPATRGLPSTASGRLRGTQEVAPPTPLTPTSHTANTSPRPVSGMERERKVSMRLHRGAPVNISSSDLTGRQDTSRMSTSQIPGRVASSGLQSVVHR
CK1ε, sequence (P49674 whole entry): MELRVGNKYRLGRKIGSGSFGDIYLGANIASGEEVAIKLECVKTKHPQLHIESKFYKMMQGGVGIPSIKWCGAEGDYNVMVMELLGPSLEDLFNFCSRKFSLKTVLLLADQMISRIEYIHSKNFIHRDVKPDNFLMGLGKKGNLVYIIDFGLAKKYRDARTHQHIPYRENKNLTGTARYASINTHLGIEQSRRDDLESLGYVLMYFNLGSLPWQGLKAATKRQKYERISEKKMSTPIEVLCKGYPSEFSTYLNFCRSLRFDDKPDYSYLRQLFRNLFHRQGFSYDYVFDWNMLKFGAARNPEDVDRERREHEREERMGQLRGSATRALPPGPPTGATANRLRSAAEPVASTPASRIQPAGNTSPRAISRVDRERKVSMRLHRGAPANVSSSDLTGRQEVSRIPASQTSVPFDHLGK

Cn1nc(-c2ccc(F)cc2)c(-c2ccc3nc(NC(=O)c4ccnc(N5CCOCC5)c4)cn3n2)c1N1CCN(C(=O)c2ccon2)CC1 [Compound 137, N-(6-(3-(4-Fluorophenyl)-5-(4-(isoxazole-3-carbonyl)piperazin-1-yl)-1-methyl-1H-pyrazol-4-yl)imidazo[1,2-b]pyridazin-2-yl)-2-morpholinoisonicotinamide]
IC50 (CK1δ): 1 nM | IC50 (CK1ε): 10.1 nM

Cn1cc(-c2ccc3nc(NC(=O)c4ncccc4Cl)cn3n2)c(-c2ccc(F)cc2)n1 [Compound 36, 3-chloro-N-(6-(3-(4-fluorophenyl)-1-methyl-1H-pyrazol-4-yl)imidazo[1,2-b]pyridazin-2-yl)picolinamide]
IC50 (CK1δ): 7.3 nM | IC50 (CK1ε): 13.7 nM

Cn1nc(-c2ccc(F)cc2)c(-c2ccc3nc(NC(=O)c4ccncc4)cn3n2)c1-c1ccncc1 [Compound 204, N-(6-(3-(4-Fluorophenyl)-1-methyl-5-(pyridin-4-yl)-1H-pyrazol-4-yl)imidazo[1,2-b]pyridazin-2-yl)isonicotinamide]
IC50 (CK1δ): 0.4 nM | IC50 (CK1ε): 3.2 nM

Cn1cc(-c2ccc3nc(NC(=O)c4ccncc4)c(-c4ccncc4)n3n2)c(-c2ccc(F)cc2)n1 [Compound 194, N-(6-(3-(4-Fluorophenyl)-1-methyl-1H-pyrazol-4-yl)-3-(pyridin-4-yl)imidazo[1,2-b]pyridazin-2-yl)isonicotinamide, 2 TFA]
IC50 (CK1δ): 97 nM | IC50 (CK1ε): 554 nM

Cn1cc(-c2ccc3nc(NC(=O)c4cc(F)cc(F)c4)cn3n2)c(-c2ccc(F)cc2)n1 [Compound 43, 3,5-difluoro-N-(6-(3-(4-fluorophenyl)-1-methyl-1H-pyrazol-4-yl)imidazo[1,2-b]pyridazin-2-yl)benzamide]
IC50 (CK1δ): 4.8 nM | IC50 (CK1ε): 15.8 nM

COCCN1CCN(c2c(-c3ccc4nc(NC(=O)c5ccnc(F)c5)cn4n3)c(-c3ccc(F)cc3)nn2C)CC1 [Compound 120, 2-Fluoro-N-(6-(3-(4-fluorophenyl)-5-(4-(2-methoxyethyl)piperazin-1-yl)-1-methyl-1H-pyrazol-4-yl)imidazo[1,2-b]pyridazin-2-yl)isonicotinamide]
IC50 (CK1δ): 0.73 nM | IC50 (CK1ε): 18.6 nM

Cc1nc(-c2cccnc2)sc1C(=O)Nc1cn2nc(-c3c(-c4ccc(F)cc4)nn(C)c3C3CCN(CCC(F)(F)F)CC3)ccc2n1 [Compound 177, N-(6-(3-(4-fluorophenyl)-1-methyl-5-(1-(3,3,3-trifluoropropyl)piperidin-4-yl)-1H-pyrazol-4-yl)imidazo[1,2-b]pyridazin-2-yl)-4-methyl-2-(pyridin-3-yl)thiazole-5-carboxamide]
IC50 (CK1δ): 0.7 nM | IC50 (CK1ε): 12.2 nM

2-fluoro-N-(6-(3-(4-fluorophenyl)-1- methyl-5-morpholino-1H-pyrazol-4-yl) imidazo[1,2-b]pyridazin-2-yl) isonicotinamide [Compound 144]
IC50 (CK1δ): 0.74 nM | IC50 (CK1ε): 3.7 nM

Cn1nc(-c2ccc(F)cc2)c(-c2ccc3nc(NC(=O)c4ccnc(F)c4)cn3n2)c1N1CCN(C(=O)CN)CC1 [Compound 123, N-(6-(5-(4-(2-Aminoacetyl)piperazin-1-yl)-3-(4-fluorophenyl)-1-methyl-1H-pyrazol-4-yl)imidazo[1,2-b]pyridazin-2-yl)-2-fluoroisonicotinamide]
IC50 (CK1δ): 0.1 nM | IC50 (CK1ε): 0.2 nM

Cn1cc(-c2ccc3nc(NC(=O)c4cc(F)ccc4F)cn3n2)c(-c2ccc(F)cc2)n1 [Compound 51, 2,5-difluoro-N-(6-(3-(4-fluorophenyl)-1-methyl-1H-pyrazol-4-yl)imidazo[1,2-b]pyridazin-2-yl)benzamide]
IC50 (CK1δ): 6.3 nM | IC50 (CK1ε): 22.9 nM

Cc1nc(-c2cccnc2)sc1C(=O)Nc1cn2nc(-c3cn(C4CC4)nc3-c3ccc(F)cc3)ccc2n1 [Compound 109, N-(6-(1-cyclopropyl-3-(4-fluorophenyl)-1H-pyrazol-4-yl)imidazo[1,2-b]pyridazin-2-yl)-4-methyl-2-(pyridin-3-yl)thiazole-5-carboxamide]
IC50 (CK1δ): 2.5 nM | IC50 (CK1ε): 12.3 nM

Cc1nc(-c2ccncc2)sc1C(=O)Nc1cn2nc(-c3cn(C)nc3-c3ccc(F)cc3)ccc2n1 [Compound 4, N-(6-(3-(4-fluorophenyl)-1-methyl-1H-pyrazol-4-yl)imidazo[1,2-b]pyridazin-2-yl)-4-methyl-2-(pyridin-4-yl)thiazol-5-carboxamide]
IC50 (CK1δ): 3.7 nM | IC50 (CK1ε): 13.7 nM

CN(C)c1ccc(C(=O)Nc2cn3nc(-c4cn(C)nc4-c4ccc(F)cc4)ccc3n2)cn1 [Compound 66, 6-(dimethylamino)-N-(6-(3-(4-fluorophenyl)-1-methyl-1H-pyrazol-4-yl)imidazo[1,2-b]pyridazin-2-yl)nicotinamide]
IC50 (CK1δ): 2.8 nM | IC50 (CK1ε): 6.6 nM

COCC(=O)N1CCC(c2c(-c3ccc4nc(NC(=O)c5ccnc(F)c5)cn4n3)c(-c3ccc(F)cc3)nn2C)CC1 [Compound 152, 2-fluoro-N-(6-(3-(4-fluorophenyl)-5-(1-(2-methoxyacetyl)piperidin-4-yl)-1-methyl-1H-pyrazol-4-yl)imidazo[1,2-b]pyridazin-2-yl) isonicotinamide]
IC50 (CK1δ): 0.3 nM | IC50 (CK1ε): 2.7 nM

COc1cc(F)cc(C(=O)Nc2cn3nc(-c4cn(C)nc4-c4ccc(F)cc4)ccc3n2)c1 [Compound 45, 3-fluoro-N-(6-(3-(4-fluorophenyl)-1-methyl-1H-pyrazol-4-yl)imidazo[1,2-b]pyridazin-2-yl)-5-methoxybenzamide]
IC50 (CK1δ): 1.9 nM | IC50 (CK1ε): 6.8 nM

Cn1cc(-c2ccc3nc(NC(=O)c4ccncc4)cn3n2)c(-c2ccc(F)cc2)n1 [Compound 1, N-(6-(3-(4-Fluorophenyl)-1-methyl-1H-pyrazol-4-yl)imidazo[1,2-b]pyridazin-2-yl)isonicotinamide]
IC50 (CK1δ): 5.2 nM | IC50 (CK1ε): 7.4 nM

COc1cc(C(=O)Nc2cn3nc(-c4cn(C)nc4-c4ccc(F)cc4)ccc3n2)ccn1 [Compound 49, N-(6-(3-(4-fluorophenyl)-1-methyl-1H-pyrazol-4-yl)imidazo[1,2-b]pyridazin-2-yl)-2-methoxyisonicotinamide]
IC50 (CK1δ): 6.1 nM | IC50 (CK1ε): 13.6 nM

Cn1nc(-c2ccc(F)cc2)c(-c2ccc3nc(NC(=O)c4ccncc4)cn3n2)c1N1CCN(CCC(F)(F)F)CC1 [Compound 130, N-(6-(3-(4-Fluorophenyl)-1-methyl-5-(4-(3,3,3-trifluoropropyl)piperazin-1-yl)-1H-pyrazol-4-yl)imidazo[1,2-b]pyridazin-2-yl)isonicotinamide]
IC50 (CK1δ): 1.4 nM | IC50 (CK1ε): 23.5 nM

Cn1cc(-c2ccc3nc(NC(=O)c4cc(-c5ccc(F)cc5)ncn4)cn3n2)c(-c2ccc(F)cc2)n1 [Compound 33, 6-(4-fluorophenyl)-N-(6-(3-(4-fluorophenyl)-1-methyl-1H-pyrazol-4-yl)imidazo[1,2-b]pyridazin-2-yl)pyrimidine-4-carboxamide]
IC50 (CK1δ): 30.4 nM | IC50 (CK1ε): 454 nM

Cn1cc(-c2ccc3nc(NC(=O)c4cc(F)cc(C#N)c4)cn3n2)c(-c2ccc(F)cc2)n1 [Compound 57, 3-cyano-5-fluoro-N-(6-(3-(4-fluorophenyl)-1-methyl-1H-pyrazol-4-yl)imidazo[1,2-b]pyridazin-2-yl)benzamide]
IC50 (CK1δ): 8.9 nM | IC50 (CK1ε): 22.3 nM

Cn1nc(-c2ccc(F)cc2)c(-c2ccc3nc(NC(=O)c4ccnc(F)c4)cn3n2)c1C1CCNCC1 [Compound 148, 2-Fluoro-N-(6-(3-(4-fluorophenyl)-1-methyl-5-(piperidin-4-yl)-1H-pyrazol-4-yl)imidazo[1,2-b]pyridazin-2-yl)isonicotinamide]
IC50 (CK1δ): 2.1 nM | IC50 (CK1ε): 2.6 nM
